The source of these data is patent US9096565B2, “Inhibitors of histone deacetylase” (MethylGene Inc., priority 2007, dated 2015).

Each structure is given as a SMILES string.

Usually IC50 stands for the concentration needed to halve the response being measured. Low values mean inhibition by little substance, high ones a need for much substance.

This assay addresses one or more of HDAC-4, HDAC-5, HDAC-6, HDAC-7, HDAC-8, HDAC-9, HDAC-10 and HDAC-11. The assay can be described thus: Inhibition of histone deacetylase enzymatic activity (summary statement over isoforms). It is filed as biochemical. Particulars: Table 3, selected examples; HDAC isoform not given. On the procedure:
The following protocol is used to assay the compounds of the invention.
The mixture is pre-incubated for 5 minutes at room temperature. The reaction is started by bringing the temperature to 37° C. and adding 15 μL substrate. Total reaction volume is 50 μL.
A 30 mM stock of Boc-Lys(trifluoroacetyl)-AMC substrate is prepared in DMSO. […] Reaction is started by adding 18 μL Boc-Lys(trifluoroacetyl)-AMC substrate and incubating at 37° C. for 20-30 minutes. The reaction is stopped by adding 50 μL trypsin (1 mg/mL) and a known HDAC inhibitor.

`O=C(NO)C(c1ccccc1)c1ccc(NCc2ccc(F)cc2)cc1` (centres unmarked) [Compound 2-51, 2-(4-(4-fluorobenzylamino)phenyl)-N-hydroxy-2-phenylacetamide] had an IC50 of less than 1000 nM. Take `CC(=O)Nc1cccc(C(C(=O)NO)c2ccccc2)c1` (centres unmarked) [Compound 2-52, 2-(3-acetamidophenyl)-N-hydroxy-2-phenylacetamide]: the IC50 fell in the range of 1000 to 15000 nM. `CC(C)CC(=O)Nc1ccc(C(C(=O)NO)c2ccccc2)cc1` (centres unmarked) [Compound 2-53, N-(4-(2-(hydroxyamino)-2-oxo-1-phenylethyl)phenyl)-3-methylbutanamide] came in with an IC50 of less than 1000 nM. `CC(C)CC(=O)Nc1cccc(C(C(=O)NO)c2ccccc2)c1` (centres unmarked) [Compound 2-54, N-(3-(2-(hydroxyamino)-2-oxo-1-phenylethyl)phenyl)-3-methylbutanamide] came in with an IC50 of 1000 to 15000 nM. In the case of `O=C(Nc1ccc(C(C(=O)NO)c2ccccc2)cc1)c1ccccc1` (centres unmarked) [Compound 2-55, N-(4-(2-(hydroxyamino)-2-oxo-1-phenylethyl)phenyl)benzamide], the concentration for half-maximal inhibition (IC50) is less than 1000 nM. `O=C(Nc1cccc(C(C(=O)NO)c2ccccc2)c1)c1ccccc1` (centres unmarked) [Compound 2-56, N-(3-(2-(hydroxyamino)-2-oxo-1-phenylethyl)phenyl)benzamide] yielded an IC50 of 1000 to 15000 nM. As to `O=C(Nc1ccc(C(C(=O)NO)c2ccccc2)cc1)C1CCCCC1` (centres unmarked) [Compound 2-57, N-(4-(2-(hydroxyamino)-2-oxo-1-phenylethyl)phenyl)cyclohexanecarboxamide], the IC50 was less than 1000 nM. The result for `O=C(Nc1cccc(C(C(=O)NO)c2ccccc2)c1)C1CCCCC1` (centres unmarked) [Compound 2-58, N-(3-(2-(hydroxyamino)-2-oxo-1-phenylethyl)phenyl)cyclohexanecarboxamide] reads 1000 to 15000 nM; that for `O=C(Cc1ccccc1)Nc1ccc(C(C(=O)NO)c2ccccc2)cc1` (centres unmarked) [Compound 2-59, N-hydroxy-2-phenyl-2-(4-(2-phenylacetamido)phenyl)acetamide], less than 1000 nM. `O=C(Cc1ccccc1)Nc1cccc(C(C(=O)NO)c2ccccc2)c1` (centres unmarked) [Compound 2-60, N-hydroxy-2-phenyl-2-(3-(2-phenylacetamido)phenyl)acetamide] yielded an IC50 of less than 1000 nM. `O=C(Nc1ccc(C(C(=O)NO)c2ccccc2)cc1)c1ccc(F)cc1` (centres unmarked) [Compound 2-61, 4-fluoro-N-(4-(2-(hydroxyamino)-2-oxo-1-phenylethyl)phenyl)benzamide]: the IC50 is less than 1000 nM. With `O=C(Nc1cccc(C(C(=O)NO)c2ccccc2)c1)c1ccc(F)cc1` (centres unmarked) [Compound 2-62, 4-fluoro-N-(3-(2-(hydroxyamino)-2-oxo-1-phenylethyl)phenyl)benzamide], the half-inhibitory concentration (IC50) was less than 1000 nM. `Cc1cc(C(=O)Nc2ccc(C(C(=O)NO)c3ccccc3)cc2)c(C)o1` (centres unmarked) [Compound 2-63, N-(4-(2-(hydroxyamino)-2-oxo-1-phenylethyl)phenyl)-2,5-dimethylfuran-3-carboxamide] displayed an IC50 of less than 1000 nM. The result for `Cc1cc(C(=O)Nc2cccc(C(C(=O)NO)c3ccccc3)c2)c(C)o1` (centres unmarked) [Compound 2-64, N-(3-(2-(hydroxyamino)-2-oxo-1-phenylethyl)phenyl)-2,5-dimethylfuran-3-carboxamide] reads 1000 to 15000 nM; that for `Cc1ccsc1C(=O)Nc1ccc(C(C(=O)NO)c2ccccc2)cc1` (centres unmarked) [Compound 2-65, N-(4-(2-(hydroxyamino)-2-oxo-1-phenylethyl)phenyl)-3-methylthiophene-2-carboxamide], less than 1000 nM.

For the compound `Cc1ccsc1C(=O)Nc1cccc(C(C(=O)NO)c2ccccc2)c1` (centres unmarked) [Compound 2-66, N-(3-(2-(hydroxyamino)-2-oxo-1-phenylethyl)phenyl)-3-methylthiophene-2-carboxamide], the IC50 lay within 1000 to 15000 nM. The result for `O=C(COc1ccccc1)Nc1ccc(C(C(=O)NO)c2ccccc2)cc1` (centres unmarked) [Compound 2-67, N-hydroxy-2-(4-(2-phenoxyacetamido)phenyl)-2-phenylacetamide] reads less than 1000 nM.
